According to patent US20250353891A1 (MEDIMMUNE LIMITED, priority 2022, published 2025):
Starred links: 1 amine or outer side, 2 acyl side, 3 side chain; linkers in the order of their positions; H or OH if unused. Non-standard residues stand in square brackets, D forms with d. Residues, ends and D or L forms follow the SMILES beside them. Groups on a side chain read outwards from the residue. *: point of attachment. C20 diacid = O=C(O)CCCCCCCCCCCCCCCCCCC(=O)*; C18 diacid = O=C(O)CCCCCCCCCCCCCCCCC(=O)*; γGlu = O=C(O)[C@H](CCC(=O)[*:2])N[*:1]; αMeF = C[C@](N)(Cc1ccccc1)C(=O)O; NMeQ = CN[C@@H](CCC(N)=O)C(=O)O; αMeQ = C[C@](N)(CCC(N)=O)C(=O)O; AEEA = NCCOCCOCC(=O)O; Ac3c = NC1(C(=O)O)CC1; Aib = CC(C)(N)C(=O)O

Tests used:
[1] = target: human glucagon receptor (hGCGR) (Homo sapiens, UniProt P47871); test: cAMP production (HTRF) in CHO cells expressing hGCGR; type: cell-based; parameters: expressed in transfected cells; details: Table 7, peptides modified at position 20; cAMP in CHO hGCGR cells; geometric mean; read-out: hGluc-R EC50
Sequence of human glucagon receptor (hGCGR) (P47871 26-477): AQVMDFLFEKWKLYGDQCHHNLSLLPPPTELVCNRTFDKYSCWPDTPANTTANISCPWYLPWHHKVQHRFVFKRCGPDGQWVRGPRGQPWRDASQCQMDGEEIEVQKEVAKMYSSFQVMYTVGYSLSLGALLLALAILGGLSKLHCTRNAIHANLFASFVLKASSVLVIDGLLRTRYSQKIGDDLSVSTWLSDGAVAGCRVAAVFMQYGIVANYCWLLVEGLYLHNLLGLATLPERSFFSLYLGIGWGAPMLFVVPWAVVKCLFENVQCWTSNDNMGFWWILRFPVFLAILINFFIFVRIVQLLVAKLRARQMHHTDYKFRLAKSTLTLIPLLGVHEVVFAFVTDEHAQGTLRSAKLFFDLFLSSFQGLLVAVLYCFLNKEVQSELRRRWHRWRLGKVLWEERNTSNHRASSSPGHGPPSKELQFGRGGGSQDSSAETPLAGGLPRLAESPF
Procedure, shortened: (§1)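 Cells were resuspended in assay buffer at batch-optimized density, typically 1×10^5 cells/mL for hGLP-1R and 2×10^5 cells/mL for hGCGR. After 30 min incubation at room temperature with compound, cAMP was measured by two-step HTRF. EC50 values came from 4-parameter logistic fits of % Delta F.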

[2] = target: human GLP-1 receptor (hGLP-1R) (Homo sapiens, UniProt P43220); test: cAMP production (HTRF) in CHO cells expressing hGLP-1R; type: cell-based; parameters: expressed in transfected cells; details: for EC50: Table 7, peptides modified at position 20, cAMP in CHO hGLP-1R cells, geometric mean, read-out: hGLP-1R EC50; for % Relative Potency Ratio: Table 7, % GLP-1R activity relative to GLP-1 / % GlucR activity relative to glucagon
Sequence of human GLP-1 receptor (hGLP-1R) (P43220 24-463): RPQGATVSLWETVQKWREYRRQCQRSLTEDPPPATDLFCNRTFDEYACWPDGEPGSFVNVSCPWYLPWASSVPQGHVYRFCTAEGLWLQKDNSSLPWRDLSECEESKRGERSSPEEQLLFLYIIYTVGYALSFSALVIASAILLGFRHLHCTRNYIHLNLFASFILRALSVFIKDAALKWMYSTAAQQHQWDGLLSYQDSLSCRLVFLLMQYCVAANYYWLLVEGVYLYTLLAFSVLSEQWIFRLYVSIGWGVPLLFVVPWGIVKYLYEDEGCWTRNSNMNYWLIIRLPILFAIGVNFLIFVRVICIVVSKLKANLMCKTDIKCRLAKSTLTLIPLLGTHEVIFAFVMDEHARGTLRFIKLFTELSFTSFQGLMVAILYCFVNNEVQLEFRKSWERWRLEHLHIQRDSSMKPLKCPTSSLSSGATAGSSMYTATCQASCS
Procedure, shortened: as §1

| EC50 [1] [nM] | EC50 [2] [nM] | % Relative Potency Ratio [2] | SMILES |
| --- | --- | --- | --- |
| > 25.6 | 11.4 | – | CC[C@H](C)[C@H](NC(=O)C(C)(C)NC(=O)[C@H](CCC(N)=O)NC(=O)[C@@H](NC(=O)[C@](C)(Cc1ccccc1)NC(=O)[C@H](CC(=O)O)NC(=O)[C@H](CCCCNC(=O)COCCOCCNC(=O)COCCOCCNC(=O)CC[C@H](NC(=O)CCCCCCCCCCCCCCCCC(=O)O)C(=O)O)NC(=O)[C@H](C)NC(=O)[C@H](C)NC(=O)[C@H](CCCNC(=N)N)NC(=O)[C@H](CO)NC(=O)[C@H](CC(=O)O)NC(=O)[C@H](CC(C)C)NC(=O)[C@](C)(Cc1ccccc1)NC(=O)[C@H](CCCCN)NC(=O)[C@H](CO)NC(=O)[C@@H](NC(=O)[C@H](CC(=O)O)NC(=O)[C@H](CO)NC(=O)[C@@H](NC(=O)[C@](C)(Cc1ccccc1)NC(=O)[C@H](CO)NC(=O)CNC(=O)[C@](C)(CCC(N)=O)NC(=O)[C@H](CO)NC(=O)[C@@H](N)Cc1c[nH]cn1)[C@@H](C)O)C(C)C)C(C)C)C(=O)N[C@@H](C)C(=O)N[C@@H](CC(N)=O)C(=O)N[C@H](C(N)=O)[C@@H](C)O [Peptide 323] (H-HS[αMeQ]GS[αMeF]TSDVSK[αMeF]LDSRAAK([AEEA-AEEA-γGlu-C18 diacid])D[αMeF]VQ[Aib]IANT-NH2) |
| > 25.6 | 6.74 | – | CC[C@H](C)[C@H](NC(=O)C(C)(C)NC(=O)[C@H](CCC(N)=O)NC(=O)[C@@H](NC(=O)[C@](C)(Cc1ccccc1)NC(=O)[C@H](CC(=O)O)NC(=O)[C@H](CCCCNC(=O)COCCOCCNC(=O)COCCOCCNC(=O)CC[C@H](NC(=O)CCCCCCCCCCCCCCCCC(=O)O)C(=O)O)NC(=O)[C@H](C)NC(=O)[C@H](C)NC(=O)[C@H](CCCNC(=N)N)NC(=O)[C@H](CO)NC(=O)[C@H](CC(=O)O)NC(=O)[C@H](CC(C)C)NC(=O)[C@](C)(Cc1ccccc1)NC(=O)[C@H](CCCCN)NC(=O)[C@H](CO)NC(=O)[C@@H](NC(=O)[C@H](CC(=O)O)NC(=O)[C@H](CO)NC(=O)[C@@H](NC(=O)[C@](C)(Cc1ccccc1)NC(=O)[C@H](CO)NC(=O)CNC(=O)[C@@H](CCC(N)=O)NC(=O)[C@H](CO)NC(=O)[C@@H](N)Cc1c[nH]cn1)[C@@H](C)O)C(C)C)C(C)C)C(=O)N[C@@H](C)C(=O)N[C@@H](CC(N)=O)C(=O)N[C@H](C(N)=O)[C@@H](C)O [Peptide 326] (H-HS[dQ]GS[αMeF]TSDVSK[αMeF]LDSRAAK([AEEA-AEEA-γGlu-C18 diacid])D[αMeF]VQ[Aib]IANT-NH2) |

Continued, molecule first:

| SMILES | EC50 [1] [nM] | EC50 [2] [nM] | % Relative Potency Ratio [2] |
| --- | --- | --- | --- |
| CC(C)C[C@H](NC(=O)C(C)(C)NC(=O)[C@H](CCC(N)=O)NC(=O)[C@@H](NC(=O)[C@H](Cc1ccccc1)NC(=O)[C@H](CC(=O)O)NC(=O)[C@H](CCCCNC(=O)COCCOCCNC(=O)COCCOCCNC(=O)CC[C@H](NC(=O)CCCCCCCCCCCCCCCCC(=O)O)C(=O)O)NC(=O)[C@H](C)NC(=O)[C@H](C)NC(=O)[C@H](CCCNC(=N)N)NC(=O)[C@H](CO)NC(=O)[C@H](CC(=O)O)NC(=O)[C@H](CC(C)C)NC(=O)[C@](C)(Cc1ccccc1)NC(=O)[C@H](CCCCN)NC(=O)[C@H](CO)NC(=O)[C@@H](NC(=O)[C@H](CC(=O)O)NC(=O)[C@H](CO)NC(=O)[C@@H](NC(=O)[C@H](Cc1ccccc1)NC(=O)[C@@H](NC(=O)CNC(=O)[C@H](CCC(N)=O)NC(=O)C(C)(C)NC(=O)[C@@H](N)Cc1c[nH]cn1)[C@@H](C)O)[C@@H](C)O)C(C)C)C(C)C)C(=O)N[C@H](C(=O)N[C@@H](C)C(=O)N[C@H](C(N)=O)[C@@H](C)O)C(C)C [Peptide 315] | 5.85 | 0.0181 | 639.1 |
| CC[C@H](C)[C@H](NC(=O)[C@H](Cc1c[nH]c2ccccc12)NC(=O)[C@H](CCC(N)=O)NC(=O)[C@@H](NC(=O)[C@H](Cc1ccccc1)NC(=O)[C@H](CC(=O)O)NC(=O)[C@H](CCCCNC(=O)COCCOCCNC(=O)COCCOCCNC(=O)CC[C@H](NC(=O)CCCCCCCCCCCCCCCCC(=O)O)C(=O)O)NC(=O)[C@H](C)NC(=O)[C@H](C)NC(=O)[C@H](CCCNC(=N)N)NC(=O)[C@H](CO)NC(=O)[C@H](CC(=O)O)NC(=O)[C@H](CC(C)C)NC(=O)[C@](C)(Cc1ccccc1)NC(=O)[C@H](CCCCN)NC(=O)[C@H](CO)NC(=O)[C@@H](NC(=O)[C@H](CC(=O)O)NC(=O)[C@H](CO)NC(=O)[C@@H](NC(=O)[C@H](Cc1ccccc1)NC(=O)[C@@H](NC(=O)CNC(=O)[C@H](CCC(N)=O)NC(=O)[C@](C)(CO)NC(=O)[C@@H](N)Cc1c[nH]cn1)[C@@H](C)O)[C@@H](C)O)C(C)C)C(C)C)C(=O)N[C@@H](C)C(=O)N[C@@H](CC(N)=O)C(=O)N[C@H](C(N)=O)[C@@H](C)O [Peptide 318] | 12 | 0.0553 | 429.7 |
| CC[C@H](C)[C@H](NC(=O)C(C)(C)NC(=O)[C@H](CCC(N)=O)NC(=O)[C@@H](NC(=O)[C@](C)(Cc1ccccc1)NC(=O)[C@H](CC(=O)O)NC(=O)[C@H](CCCCNC(=O)COCCOCCNC(=O)COCCOCCNC(=O)CC[C@H](NC(=O)CCCCCCCCCCCCCCCCC(=O)O)C(=O)O)NC(=O)[C@H](C)NC(=O)[C@H](C)NC(=O)[C@H](CCCNC(=N)N)NC(=O)[C@H](CO)NC(=O)[C@H](CC(=O)O)NC(=O)[C@H](CC(C)C)NC(=O)[C@](C)(Cc1ccccc1)NC(=O)[C@H](CCCCN)NC(=O)[C@H](CO)NC(=O)[C@@H](NC(=O)[C@H](CC(=O)O)NC(=O)[C@H](CO)NC(=O)[C@@H](NC(=O)[C@](C)(Cc1ccccc1)NC(=O)[C@H](CO)NC(=O)CNC(=O)[C@H](CCC(N)=O)NC(=O)C(C)(C)NC(=O)[C@@H](N)Cc1c[nH]cn1)[C@@H](C)O)C(C)C)C(C)C)C(=O)N[C@@H](C)C(=O)N[C@@H](CC(N)=O)C(=O)N[C@H](C(N)=O)[C@@H](C)O [Peptide 321] (H-H[Aib]QGS[αMeF]TSDVSK[αMeF]LDSRAAK([AEEA-AEEA-γGlu-C18 diacid])D[αMeF]VQ[Aib]IANT-NH2) | 4.4 | 0.0226 | 384.7 |
| CC[C@H](C)[C@H](NC(=O)C(C)(C)NC(=O)[C@H](CCC(N)=O)NC(=O)[C@@H](NC(=O)[C@](C)(Cc1ccccc1)NC(=O)[C@H](CC(=O)O)NC(=O)[C@H](CCCCNC(=O)COCCOCCNC(=O)COCCOCCNC(=O)CC[C@H](NC(=O)CC[C@H](NC(=O)CCCCCCCCCCCCCCCCCCC(=O)O)C(=O)O)C(=O)O)NC(=O)[C@H](C)NC(=O)[C@H](C)NC(=O)[C@H](CCCNC(=N)N)NC(=O)[C@H](CO)NC(=O)[C@H](CC(=O)O)NC(=O)[C@H](CC(C)C)NC(=O)[C@](C)(Cc1ccccc1)NC(=O)[C@H](CCCCN)NC(=O)[C@H](CO)NC(=O)[C@@H](NC(=O)[C@H](CC(=O)O)NC(=O)[C@H](CO)NC(=O)[C@@H](NC(=O)[C@](C)(Cc1ccccc1)NC(=O)[C@H](CO)NC(=O)CNC(=O)[C@H](CCC(N)=O)NC(=O)C(C)(C)NC(=O)[C@@H](N)Cc1c[nH]cn1)[C@@H](C)O)C(C)C)C(C)C)C(=O)N[C@@H](C)C(=O)N[C@@H](CC(N)=O)C(=O)N[C@H](C(N)=O)[C@@H](C)O [Peptide 322] (H-H[Aib]QGS[αMeF]TSDVSK[αMeF]LDSRAAK([AEEA-AEEA-γGlu-γGlu-C20 diacid])D[αMeF]VQ[Aib]IANT-NH2) | > 24.7 | 0.0683 | – |
| CC[C@H](C)[C@H](NC(=O)C(C)(C)NC(=O)[C@H](CCC(N)=O)NC(=O)[C@@H](NC(=O)[C@](C)(Cc1ccccc1)NC(=O)[C@H](CC(=O)O)NC(=O)[C@H](CCCCNC(=O)COCCOCCNC(=O)COCCOCCNC(=O)CC[C@H](NC(=O)CCCCCCCCCCCCCCCCC(=O)O)C(=O)O)NC(=O)[C@H](C)NC(=O)[C@H](C)NC(=O)[C@H](CCCNC(=N)N)NC(=O)[C@H](CO)NC(=O)[C@H](CC(=O)O)NC(=O)[C@H](CC(C)C)NC(=O)[C@](C)(Cc1ccccc1)NC(=O)[C@H](CCCCN)NC(=O)[C@H](CO)NC(=O)[C@@H](NC(=O)[C@H](CC(=O)O)NC(=O)[C@H](CO)NC(=O)[C@@H](NC(=O)[C@](C)(Cc1ccccc1)NC(=O)[C@H](CO)NC(=O)CNC(=O)[C@H](CCC(N)=O)N(C)C(=O)[C@H](CO)NC(=O)[C@@H](N)Cc1c[nH]cn1)[C@@H](C)O)C(C)C)C(C)C)C(=O)N[C@@H](C)C(=O)N[C@@H](CC(N)=O)C(=O)N[C@H](C(N)=O)[C@@H](C)O [Peptide 325] (H-HS[NMeQ]GS[αMeF]TSDVSK[αMeF]LDSRAAK([AEEA-AEEA-γGlu-C18 diacid])D[αMeF]VQ[Aib]IANT-NH2) | > 25.5 | 0.929 | – |
| CC[C@H](C)[C@H](NC(=O)C(C)(C)NC(=O)[C@H](CCC(N)=O)NC(=O)[C@@H](NC(=O)[C@](C)(Cc1ccccc1)NC(=O)[C@H](CC(=O)O)NC(=O)[C@H](CCCCNC(=O)COCCOCCNC(=O)COCCOCCNC(=O)CC[C@H](NC(=O)CCCCCCCCCCCCCCCCC(=O)O)C(=O)O)NC(=O)[C@H](C)NC(=O)[C@H](C)NC(=O)[C@H](CCCNC(=N)N)NC(=O)[C@H](CO)NC(=O)[C@H](CC(=O)O)NC(=O)[C@H](CC(C)C)NC(=O)[C@](C)(Cc1ccccc1)NC(=O)[C@H](CCCCN)NC(=O)[C@H](CO)NC(=O)[C@@H](NC(=O)[C@H](CC(=O)O)NC(=O)[C@H](CO)NC(=O)[C@@H](NC(=O)[C@](C)(Cc1ccccc1)NC(=O)[C@H](CO)NC(=O)CNC(=O)[C@H](CCC(N)=O)NC(=O)C1(NC(=O)[C@@H](N)Cc2c[nH]cn2)CC1)[C@@H](C)O)C(C)C)C(C)C)C(=O)N[C@@H](C)C(=O)N[C@@H](CC(N)=O)C(=O)N[C@H](C(N)=O)[C@@H](C)O [Peptide 327] (H-H[Ac3c]QGS[αMeF]TSDVSK[αMeF]LDSRAAK([AEEA-AEEA-γGlu-C18 diacid])D[αMeF]VQ[Aib]IANT-NH2) | > 25.7 | 0.0301 | – |
